According to US11591352B2, “Method for treatment of senescence-related disorders” (SPRINGTIDE VENTURES S.R.O., priority 2016, dated 2023):
Read-outs that look alike come from different tables or passages of the source.

Assays:
[1] = system: control retinal pigment epithelial cells (RPE); experiment: Viability (annexin V/Hoechst) of control RPE cells; assay type: cell-based; details: for % of Annexin V-/Hoechst-cells: ctrl
Method: (§3) The effect of compounds 7, 8, 10, 15 on primary senescent cells (retinal pigment epithelial cells (RPE) treated for 8 days with 100 μM 5-bromo-2-deoxyuridine (BrdU)) was tested.

[2] = system: senescent retinal pigment epithelial cells (RPE) treated with BrdU; experiment: Viability (annexin V/Hoechst) of senescent RPE cells; details: for % of Annexin V-/Hoechst-cells: BrdU; for selectivity of cytotoxicity for senescent versus control cells (in words): senescent (BrdU) vs control RPE cells
Method: as §3

[3] = system: B-gal positive (senescent) cells in lungs; experiment: B-gal staining of lungs of young and naturally old FVB mice treated with compound 8; assay type: in vivo; details: for % of B-gal positive cells: 1 μg/g every week for 4 weeks
Method: We first analyzed the presence of senescent cells (using B-galactosidase (B-gal) staining) in organs in these two groups. From all tested organs (lungs, brain, white adipose tissue and stomach), we detected the biggest difference in presence of B-gal-positive cells in lungs (not shown). In the next step we treated the mice (6×19 month old mice+6×2 month old mice) with 1 dose of compound 8 (1 μg of compound 8/1 g mouse) every week for a period of 4 weeks. Mice (5×19 month old mice+6×2 month old mice) treated only with a corn oil without compound 8 were used as a control. After 4 weeks we removed lungs and detected percentage of B-gal positive cells in the tissues.

[4] = system: p16, p21 and plasminogen activator inhibitor (PAI) mRNA; experiment: qRT PCR of senescent markers in organs of young and old FVB mice; assay type: in vivo
[5] = system: BxPC-3 (senescent); experiment: Viability (Annexin V/Hoechst) of senescent pancreatic cells; assay type: cell-based; details: 48 h
Method: (§1) We tested the effect of compound 8 on cultured senescent pancreatic cells. We used three pancreatic cell lines (PANC-1, PaTu and BxPC-3) exposed to 100 μM BrdU for 6 days to induce senescence. These senescent cells were treated with different doses of compound 8 for 48 h and their viability was assessed. […] RPE cells, as the most sensitive tested cells, were used as a control to establish the concentration at which compound 8 is not toxic for non-senescent cells.

[6] = system: PANC-1 (senescent); experiment: as above; assay type: cell-based; details: 48 h
Method: as §1

[7] = system: PaTu (senescent); experiment: as above; assay type: cell-based; details: 48 h
Method: as §1

[8] = system: RPE (control); experiment: Viability (Annexin V/Hoechst) of non-senescent control cells; assay type: cell-based; details: 48 h
Method: as §1

[9] = system: p16, p21 and PAI mRNA in 4T1 cell-derived tumours; experiment: qRT PCR of senescent markers in 4T1 cell-derived tumours; assay type: in vivo, Balb-c mice
[10] = system: p16, p21 and PAI mRNA in FVB/cneu spontaneous tumours; experiment: qRT PCR of senescent markers in spontaneous tumours; assay type: in vivo, FVB mice
[11] = system: p16 and p21 mRNA in PDX (triple-negative breast tumour); experiment: qRT PCR of senescence markers in patient-derived xenografts; assay type: in vivo, NOD scid gamma mice
Method: Importantly, we repeated this experiment using patient-derived xenografts (PDXs; triple-negative breast tumour) transplanted into NOD scid gamma mice and treated with compound 8 (0.375 mg of compound 8/mouse, twice per week for a period of 2-3 weeks).

[12] = system: RPE cells; experiment: Lactate production in RPE cells; assay type: cell-based
Excerpt: (§2) Adenin nucleotid translocase 2 (ANT2) is a protein important for translocation of ATP from cytoplasm to mitochondria unlike two other members of ANT family, ANT1 and ANT3, participating in classical transfer of ADP into mitochondria via complex V during mitochondrial respiration. ANT2 plays a key role in maintenance of mitochondrial potential and in preserving intact mitochondria, especially in tumour cells. […] All these experiments show a key role of ANT2 in compound 8 resistance.

[13] = system: RPE cells (siNC / siANT2); experiment: Viability of RPE cells after ANT2 downregulation by siRNA; assay type: cell-based
Excerpt: as §2

[14] = system: RPE cells with inducible ANT2; experiment: Viability of RPE cells transfected with inducible ANT2; assay type: cell-based
Excerpt: as §2

[15] = system: senescent retinal pigment epithelial cells (RPE) treated with BrdU
Method: as §3

[16] = BALBe/4T1 tumors, treated, 0.2 mg/mouse twice per week for 2-3 weeks
[17] = FVB/cneu tumors, treated, 0.2 mg/mouse twice per week for 2-3 weeks
[18] = PDX tumors, treated, 0.375 mg/mouse twice per week for 2-3 weeks

## CC/C(=C(\c1ccccc1)c1ccc(OCCN(C)C)cc1)c1ccccc1 [Tamoxifen]
[1]; 1 μM
  % of Annexin V-/Hoechst-cells: 97.0%
[1]; 2.5 μM
  % of Annexin V-/Hoechst-cells: 96.7%
[1]; 5 μM
  % of Annexin V-/Hoechst-cells: 94.7%
[1]; 10 μM
  % of Annexin V-/Hoechst-cells: 55.8%
[1]; 20 μM
  % of Annexin V-/Hoechst-cells: 2.15%
[2]; 10 μM, both senescent and control cells
  decrease of viability (in words): by about half
[2]; 20 μM, both senescent and control cells
  cytotoxicity (in words): highly cytotoxic
[2]; 1 μM
  % of Annexin V-/Hoechst-cells: 73.8%
[2]; 2.5 μM
  % of Annexin V-/Hoechst-cells: 73.0%
[2]; 5 μM
  % of Annexin V-/Hoechst-cells: 70.1%
[2]; 10 μM
  % of Annexin V-/Hoechst-cells: 33.8%
[2]; 20 μM
  % of Annexin V-/Hoechst-cells: 4.3%
[2]
  selectivity of cytotoxicity for senescent versus control cells (in words): does not at any tested concentration have a significantly higher toxicity for senescent cells than for control cells
[2]; up to 5 μM, senescent and control cells
  cytotoxicity (in words): does not show cytotoxicity

## CN(C)CCOc1ccc(/C(=C(/CCCCCCCCCCBr)c2ccccc2)c2ccccc2)cc1 [compound 7]
[1]; 0.05 μM
  % of Annexin V-/Hoechst-cells: 94.6%
[1]; 0.1 μM
  % of Annexin V-/Hoechst-cells: 95.1%
[1]; 0.5 μM
  % of Annexin V-/Hoechst-cells: 91.4%
[2]; 0.05 μM
  % of Annexin V-/Hoechst-cells: 80.5%
[2]; 0.1 μM
  % of Annexin V-/Hoechst-cells: 78.3%
[2]; 0.5 μM
  % of Annexin V-/Hoechst-cells: 55.3%
[2]
  selectivity of cytotoxicity for senescent versus control cells (in words): selectively more cytotoxic to senescent cells

## CN(C)CCOc1ccc(/C(=C(/CCCCCCCCCC[P+](c2ccccc2)(c2ccccc2)c2ccccc2)c2ccccc2)c2ccccc2)cc1.[Br-] [compound 8]
[3]; 2 month old mice
  % of B-gal positive cells: 0.3%
[3]; 19 month old mice
  % of B-gal positive cells: 0.7%
[3]; old mice
  number of B-gal-positive cells after treatment (in words): decrease of their number
[4]; kidney, 2 m treated
  PAI mRNA fold change: 0.47 (+/− 0.09) fold change
  p16 mRNA fold change: 0.02 (+/− 0.01) fold change
  p21 mRNA fold change: 0.25 (+/− 0.05) fold change
[4]; kidney, 19 m treated
  PAI mRNA fold change: 0.79 (+/− 0.17) fold change
  p16 mRNA fold change: 0.79 (+/− 0.31) fold change
  p21 mRNA fold change: 0.34 (+/− 0.11) fold change
[4]; lungs, 2 m treated
  PAI mRNA fold change: 0.69 (+/− 0.12) fold change
  p16 mRNA fold change: 0.63 (+/− 0.07) fold change
  p21 mRNA fold change: 0.30 (+/− 0.06) fold change
[4]; lungs, 19 m treated
  PAI mRNA fold change: 0.93 (+/− 0.22) fold change
  p16 mRNA fold change: 0.74 (+/− 0.12) fold change
  p21 mRNA fold change: 0.39 (+/− 0.03) fold change
[4]; old mouse tissue
  level of senescent markers p16, p21, PAI mRNA after treatment (in words): decreased almost to control levels
[5]; 0.1 μM
  % of AnnexinV-/Hoechst-cells: 47.7 (+/− 0.49) %
[5]; 0.5 μM
  % of AnnexinV-/Hoechst-cells: 35.9 (+/− 6.22) %
[5]; 1 μM
  % of AnnexinV-/Hoechst-cells: 4.8 (+/− 0.83) %
[5]; 2.5 μM
  % of AnnexinV-/Hoechst-cells: 3.9 (+/− 1.69) %
[6]; 0.1 μM
  % of AnnexinV-/Hoechst-cells: 92.3 (+/− 0.78) %
[6]; 0.5 μM
  % of AnnexinV-/Hoechst-cells: 92.7 (+/− 1.27) %
[6]; 1 μM
  % of AnnexinV-/Hoechst-cells: 5.0 (+/− 1.97) %
[6]; 2.5 μM
  % of AnnexinV-/Hoechst-cells: 3.1 (+/− 0.68) %
[7]; 0.1 μM
  % of AnnexinV-/Hoechst-cells: 24.7 (+/− 3.25) %
[7]; 0.5 μM
  % of AnnexinV-/Hoechst-cells: 10.3 (+/− 0.97) %
[7]; 1 μM
  % of AnnexinV-/Hoechst-cells: 3.6 (+/− 3.24) %
[7]; 2.5 μM
  % of AnnexinV-/Hoechst-cells: 2.4 (+/− 1.21) %
[8]; 0.1 μM
  % of AnnexinV-/Hoechst-cells: 98.9 (+/− 0.14) %
[8]; 0.5 μM
  % of AnnexinV-/Hoechst-cells: 98.8 (+/− 0.21) %
[8]; 1 μM
  % of AnnexinV-/Hoechst-cells: 98.3 (+/− 0.14) %
[8]; 2.5 μM
  % of AnnexinV-/Hoechst-cells: 99.1 (+/− 0.35) %
[9]; [16]
  PAI mRNA fold change: 0.59 (+/− 0.22) fold change
  p16 mRNA fold change: 0.20 (+/− 0.08) fold change
  p21 mRNA fold change: 0.77 (+/− 0.18) fold change
[9]; Balb-c mice with 4T1 tumours, 0.2 mg/mouse twice per week, 2-3 weeks
  increase of senescent markers p16, p21 and PAI on the mRNA level (in words): did not observe any increase
[10]; FVB mice with spontaneous tumours, 0.2 mg/mouse twice per week, 2-3 weeks
  increase of senescent markers p16, p21 and PAI on the mRNA level (in words): did not observe any increase
[10]; [17]
  PAI mRNA fold change: 1.93 (+/− 1.19) fold change
  p16 mRNA fold change: 0.39 (+/− 0.24) fold change
  p21 mRNA fold change: 1.94 (+/− 1.43) fold change
[11]; PDX in NOD scid gamma mice, 0.375 mg/mouse twice per week, 2-3 weeks
  increase of senescence markers (in words): no increase
[11]; [18]
  p2l mRNA fold change: 0.72 (+/− 0.84) fold change
  p16 mRNA fold change: 1.34 (+/− 1.25) fold change
[12]; RPE BrdU (senescent) treated
  Lactate production (fold induction): 8.2 fold induction
[12]; RPE ctrl treated
  Lactate production (fold induction): 1.6 fold induction
[13]; RPE siANT2 treated
  % of AnnexinV-/Hoechst-cells: 20.7%
[13]; RPE siNC treated
  % of AnnexinV-/Hoechst-cells: 90.5%
[13]; RPE, ANT2 siRNA
  death of control cells with downregulated ANT2 after treatment (in words): increased death of these cells
[14]; RPE BrdU + ANT2
  resistance of senescent cells with induced ANT2 towards treatment (in words): increased resistance
[14]; RPE BrdU + ANT2 treated
  % of AnnexinV-/Hoechst-cells: 53.8%
[14]; RPE BrdU treated
  % of AnnexinV-/Hoechst-cells: 6.8%
[14]; RPE ctrl + ANT2 treated
  % of AnnexinV-/Hoechst-cells: 95.2%
[14]; RPE ctrl treated
  % of AnnexinV-/Hoechst-cells: 95.0%
[1]; control RPE
  effect on control cells (in words): without any effect on control cells
[1]; 1 μM
  % of Annexin V-/Hoechst-cells: 93.0%
[1]; 2.5 μM
  % of Annexin V-/Hoechst-cells: 90.3%
[1]; 5 μM
  % of Annexin V-/Hoechst-cells: 3.1%
[15]
  selectivity of cytotoxicity for senescent versus control cells (in words): selectively more cytotoxic to senescent cells
[2]; 1 μM
  % of Annexin V-/Hoechst-cells: 67.0%
[2]; 2.5 μM
  % of Annexin V-/Hoechst-cells: 13.9%
[2]; 5 μM
  % of Annexin V-/Hoechst-cells: 0.8%
[2]; RPE, 100 μM BrdU for 8 days
  effect on elimination of senescent cells (in words): specific effect on elimination of senescent cells
